Reference: ChEMBL document CHEMBL1140791, “Design and identification of selective HER-2 sheddase inhibitors via P1' manipulation and unconventional P2' perturbations to induce a molecular metamorphosis” (Bioorg Med Chem Lett, 2008)
The source made the active and inactive calls. The rule behind the calls is not given here.

Columns and labels:
[1] = biological target: 72 kDa type IV collagenase (Homo sapiens, UniProt P08253); assay: Binding affinity to MMP2
[2] = biological target: T1, Disintegrin and metalloproteinase domain-containing protein 10 (Homo sapiens, UniProt O14672); assay: Binding affinity to ADAM10
T1 sequence (O14672 whole entry): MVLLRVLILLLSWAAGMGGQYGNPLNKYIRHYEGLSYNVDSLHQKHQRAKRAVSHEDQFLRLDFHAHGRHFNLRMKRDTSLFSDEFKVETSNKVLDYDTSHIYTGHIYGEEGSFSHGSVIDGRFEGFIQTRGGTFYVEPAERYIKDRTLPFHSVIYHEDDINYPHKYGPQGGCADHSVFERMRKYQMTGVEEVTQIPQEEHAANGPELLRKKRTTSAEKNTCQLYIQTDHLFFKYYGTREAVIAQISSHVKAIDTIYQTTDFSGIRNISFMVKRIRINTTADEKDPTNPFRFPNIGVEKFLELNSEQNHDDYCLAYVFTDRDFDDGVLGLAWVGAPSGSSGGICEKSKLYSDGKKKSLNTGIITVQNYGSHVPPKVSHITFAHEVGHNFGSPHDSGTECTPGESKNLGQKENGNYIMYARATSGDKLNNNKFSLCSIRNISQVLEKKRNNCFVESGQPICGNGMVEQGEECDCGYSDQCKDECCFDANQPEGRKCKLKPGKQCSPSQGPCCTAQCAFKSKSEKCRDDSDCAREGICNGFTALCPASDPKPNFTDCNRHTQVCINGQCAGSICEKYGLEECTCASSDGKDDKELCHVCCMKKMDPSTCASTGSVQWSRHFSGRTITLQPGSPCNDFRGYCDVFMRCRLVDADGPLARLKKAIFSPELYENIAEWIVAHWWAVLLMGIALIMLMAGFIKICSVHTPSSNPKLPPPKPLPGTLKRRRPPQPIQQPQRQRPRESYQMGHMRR

Stromelysin-1 = Stromelysin-1 (Homo sapiens, UniProt P08254); assay: Binding affinity to MMP3
Sequence of Stromelysin-1 (P08254 whole entry, the tested form may be a part): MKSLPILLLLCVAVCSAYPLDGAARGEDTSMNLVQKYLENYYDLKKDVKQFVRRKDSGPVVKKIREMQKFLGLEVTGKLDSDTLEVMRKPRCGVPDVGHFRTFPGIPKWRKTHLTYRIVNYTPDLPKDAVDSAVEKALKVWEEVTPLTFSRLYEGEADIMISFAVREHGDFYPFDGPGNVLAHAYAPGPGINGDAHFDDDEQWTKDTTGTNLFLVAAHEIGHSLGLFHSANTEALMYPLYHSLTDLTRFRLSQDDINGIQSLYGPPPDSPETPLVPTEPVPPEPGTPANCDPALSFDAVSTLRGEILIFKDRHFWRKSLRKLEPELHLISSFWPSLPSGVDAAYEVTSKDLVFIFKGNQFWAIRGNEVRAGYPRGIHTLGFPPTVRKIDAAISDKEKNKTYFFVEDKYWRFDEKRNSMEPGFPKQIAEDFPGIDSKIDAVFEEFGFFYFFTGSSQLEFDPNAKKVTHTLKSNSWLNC

[3] = biological target: T1, Disintegrin and metalloproteinase domain-containing protein 10; assay: (§1) Inhibition of HER2 sheddase in BT474 cells by extracellular domain shedding assay; assay type: cell-based, BT-474
[4] = biological target: Matrix metalloproteinase-9 (Homo sapiens, UniProt P14780); assay: Binding affinity to MMP9
Sequence of Matrix metalloproteinase-9 (P14780 whole entry): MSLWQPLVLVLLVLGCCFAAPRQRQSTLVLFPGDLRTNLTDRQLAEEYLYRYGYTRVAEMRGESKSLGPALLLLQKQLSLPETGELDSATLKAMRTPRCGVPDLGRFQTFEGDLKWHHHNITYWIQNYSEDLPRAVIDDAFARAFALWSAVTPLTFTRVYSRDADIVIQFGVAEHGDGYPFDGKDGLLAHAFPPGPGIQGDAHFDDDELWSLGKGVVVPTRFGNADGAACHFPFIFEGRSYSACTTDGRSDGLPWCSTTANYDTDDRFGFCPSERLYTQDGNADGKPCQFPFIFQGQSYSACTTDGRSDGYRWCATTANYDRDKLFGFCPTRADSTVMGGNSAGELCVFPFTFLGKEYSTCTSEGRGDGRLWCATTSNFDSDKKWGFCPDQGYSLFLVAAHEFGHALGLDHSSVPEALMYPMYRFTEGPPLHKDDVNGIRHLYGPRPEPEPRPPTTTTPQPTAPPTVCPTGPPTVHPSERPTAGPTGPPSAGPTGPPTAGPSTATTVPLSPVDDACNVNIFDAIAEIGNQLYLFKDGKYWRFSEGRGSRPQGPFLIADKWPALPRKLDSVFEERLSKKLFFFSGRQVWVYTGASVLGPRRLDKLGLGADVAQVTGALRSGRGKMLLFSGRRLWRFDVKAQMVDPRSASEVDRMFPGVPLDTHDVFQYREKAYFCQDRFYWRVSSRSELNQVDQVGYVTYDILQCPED

Interstitial collagenase = biological target: T2, Interstitial collagenase (Homo sapiens, UniProt P03956); assay: Binding affinity to MMP1
T2 sequence (P03956 whole entry): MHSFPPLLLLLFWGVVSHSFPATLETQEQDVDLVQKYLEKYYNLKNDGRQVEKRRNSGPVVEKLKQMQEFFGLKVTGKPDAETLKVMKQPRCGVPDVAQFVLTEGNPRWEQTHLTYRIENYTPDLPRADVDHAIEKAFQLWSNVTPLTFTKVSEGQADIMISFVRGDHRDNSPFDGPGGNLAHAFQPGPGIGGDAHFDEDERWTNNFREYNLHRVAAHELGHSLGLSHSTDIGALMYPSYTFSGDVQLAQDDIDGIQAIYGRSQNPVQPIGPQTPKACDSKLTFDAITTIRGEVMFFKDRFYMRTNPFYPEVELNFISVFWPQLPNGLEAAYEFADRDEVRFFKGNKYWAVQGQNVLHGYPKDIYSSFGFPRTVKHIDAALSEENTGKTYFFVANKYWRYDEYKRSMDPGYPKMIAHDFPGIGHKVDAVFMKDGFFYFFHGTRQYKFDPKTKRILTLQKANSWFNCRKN

[5] = biological target: T3, Disintegrin and metalloproteinase domain-containing protein 10 (Homo sapiens) (UniProt O14672); assay: as §1; assay type: cell-based; conditions: BT-474
T3 sequence (whole entry): T1 sequence (O14672 whole entry)

[6] = Selectivity for ADAM10 over MMP3
[7] = Selectivity for ADAM10 over MMP2
[8] = Selectivity for ADAM10 over MMP9
[9] = AUC (0 to 24 hrs) in mouse at 10 mg/kg, po; assay type: ADME, organism-based; design: time < 24 hr, dose 10 mg/kg, route oral; conditions: plasma
Plasma = assay: Protein binding in human plasma assessed as unbound fraction; assay type: ADME, cell-free
[10] = Selectivity for ADAM10 over MMP1
[11] = Cmax in mouse at 10 mg/kg, po; assay type: ADME, organism-based; design: dose 10 mg/kg, route oral; conditions: in vivo
[12] = Half life in mouse; assay type: ADME, organism-based; conditions: in vivo

Sequence of 72 kDa type IV collagenase (P08253 whole entry, the tested form may be a part): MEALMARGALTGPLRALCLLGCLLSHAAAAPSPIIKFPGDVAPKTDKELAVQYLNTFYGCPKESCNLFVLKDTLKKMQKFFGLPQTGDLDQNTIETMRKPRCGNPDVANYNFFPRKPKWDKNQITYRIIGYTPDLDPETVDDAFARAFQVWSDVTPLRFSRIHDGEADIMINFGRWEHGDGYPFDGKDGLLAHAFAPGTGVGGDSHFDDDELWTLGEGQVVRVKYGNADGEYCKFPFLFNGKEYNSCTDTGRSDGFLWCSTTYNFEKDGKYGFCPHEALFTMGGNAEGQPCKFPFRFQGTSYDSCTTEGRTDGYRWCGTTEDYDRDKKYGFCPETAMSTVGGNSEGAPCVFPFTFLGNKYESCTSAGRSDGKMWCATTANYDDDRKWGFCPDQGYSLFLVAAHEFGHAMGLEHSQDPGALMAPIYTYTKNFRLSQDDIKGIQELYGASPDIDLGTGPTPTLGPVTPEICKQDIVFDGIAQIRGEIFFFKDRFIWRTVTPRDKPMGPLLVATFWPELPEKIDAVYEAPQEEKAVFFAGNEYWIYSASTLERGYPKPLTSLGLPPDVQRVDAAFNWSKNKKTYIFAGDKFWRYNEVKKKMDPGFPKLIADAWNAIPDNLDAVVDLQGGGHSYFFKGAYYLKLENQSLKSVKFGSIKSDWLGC

SMILES | IC50 [1] [nM] | IC50 [2] [nM] | IC50 (Stromelysin-1) [nM] | IC50 [3] [nM] | IC50 [4] [nM] | IC50 (Interstitial collagenase) [nM] | also measured
Cc1cccc(C2CCN(C(=O)[C@H]3NCC4(CC4)C[C@@H]3C(=O)NO)CC2)c1 | 391 | 194 | > 5000 | 689 | 604 | > 5000 | 
CS(=O)(=O)N1CC2(CC2)C[C@H](C(=O)NO)[C@H]1C(=O)N1CC=C(c2ccccc2)CC1 | 53 | 51 | > 5000 | 93 | 677 | > 5000 | 
O=C(NO)[C@H]1CC2(CC2)CN[C@@H]1C(=O)N1CCC(c2ccccc2)CC1 |  |  |  | 137 |  |  | 
COc1cccc(C2=CCN(C(=O)[C@H]3NCC4(CC4)C[C@@H]3C(=O)NO)CC2)c1 | 50 | 40 |  | 194 | 110 | > 5000 | 
O=C(NO)[C@H]1CC2(CC2)CN[C@@H]1C(=O)N1CC=C(c2cccc(C3CC3)c2)CC1 | 24 | 48 |  |  |  |  | 
Cc1cccc(N2CCN(C(=O)[C@H]3NCC4(CC4)C[C@@H]3C(=O)NO)CC2)c1 | 63 | 187 | > 1000 | 184 | 1270 | > 5000 | 
CS(=O)(=O)N1CC2(CC2)C[C@H](C(=O)NO)[C@H]1C(=O)N1CCN(c2ccccc2)CC1 | 86 | 27 | > 5000 | 45 | 1500 | > 5000 | 
CC(C)c1cc(C2=CCN(C(=O)[C@H]3NCC4(CC4)C[C@@H]3C(=O)NO)CC2)ccc1C#N | 2500 | 154 |  | 902 |  |  | 
CC(C)c1cccc(C2CCN(C(=O)[C@H]3NCC4(CC4)C[C@@H]3C(=O)NO)CC2)c1 | 1390 | 16 | > 5000 | 139 |  |  | 
O=C(NO)[C@H]1CC2(CC2)CN[C@@H]1C(=O)N1CC=C(c2cc(F)cc(F)c2)CC1 | 14 | 15 | > 5000 | 24 | 916 | > 5000 | 
CC(C)c1cccc(N2CCN(C(=O)[C@H]3NCC4(CC4)C[C@@H]3C(=O)NO)CC2)c1 | > 5000 | 1100 |  |  |  | > 5000 | Activity [5]: inactive
O=C(NO)[C@H]1CC2(CC2)CN[C@@H]1C(=O)N1CCC(c2ccccc2)C1 (some centres undefined) | 960 |  | > 3000 |  | > 3000 | > 5000 | 
O=C(NO)[C@H]1CC2(CC2)CN(C(=O)OC2CCOCC2)[C@@H]1C(=O)N1CCN(c2ccccc2)CC1 | 106 | 37 | 4000 | 26 | 2620 | > 5000 | 
Cc1cc(N2CCN(C(=O)[C@H]3NCC4(CC4)C[C@@H]3C(=O)NO)CC2)ccc1C#N | < 5 | 38 |  | 594 |  |  | 
O=C(NO)[C@H]1CC2(CC2)CN(C(=O)OCc2ccccc2)[C@@H]1C(=O)N1CC=C(c2ccccc2)CC1 | 37 | 34 | 1670 | 431 | 309 | > 5000 | 
CC(C)c1cccc(C2=CCN(C(=O)[C@H]3NCC4(CC4)C[C@@H]3C(=O)NO)CC2)c1 | 1100 | 73 | 5000 | 229 | 2500 | > 5000 | Ratio IC50 [6]: 2; Ratio IC50 [7]: > 15; Ratio IC50 [8]: 10
CC(=O)N1CC2(CC2)C[C@H](C(=O)NO)[C@H]1C(=O)N1CC=C(c2ccccc2)CC1 | 50 | 40 | > 5000 | 72 | 160 | > 5000 | 
Cc1cccc(C2=CCN(C(=O)[C@H]3NCC4(CC4)C[C@@H]3C(=O)NO)CC2)c1 | 13 | 25 | 359 | 42 | 111 | 1890 | 
COC(=O)N1CC2(CC2)C[C@H](C(=O)NO)[C@H]1C(=O)N1CCC(c2ccccc2)CC1 | 472 | 19 |  | 169 |  |  | 
CCc1cccc(C2=CCN(C(=O)[C@H]3NCC4(CC4)C[C@@H]3C(=O)NO)CC2)c1 | 21 | 33 |  | 240 | 190 | > 5000 | 
Cc1cc(C2=CCN(C(=O)[C@H]3NCC4(CC4)C[C@@H]3C(=O)NO)CC2)cc(C)c1C#N | 159 | 28 | 3500 | 129 | > 5000 | > 5000 | 
CC(C)COC(=O)N1CC2(CC2)C[C@H](C(=O)NO)[C@H]1C(=O)N1CC=C(c2ccccc2)CC1 | 35 | 19 | 2600 | 150 | 451 | > 5000 | 
O=C(NO)[C@H]1CC2(CC2)CN[C@@H]1C(=O)N1CC=C(c2cc(Cl)cc(Cl)c2)CC1 | 5000 | 99 |  |  |  |  | Activity [5]: inactive
O=C(NO)[C@H]1CC2(CC2)CN[C@@H]1C(=O)N1CCN(c2cccc(Cl)c2)CC1 | 32 | 14 |  | 42 |  |  | 
COC(=O)N1CC2(CC2)C[C@H](C(=O)NO)[C@H]1C(=O)N1CCC(c2ccccc2)C1 (some centres undefined) | > 5000 | 81 |  | 289 |  |  | 
COC(=O)N1CC2(CC2)C[C@H](C(=O)NO)[C@H]1C(=O)N1CC=C(c2ccccc2)C1 | 488 | 26 | > 5000 | 34 | 3050 | > 5000 | Ratio IC50 [6]: 11; AUC(0-t) at 24 h [9]: 2.8 µM·h; PPB (Plasma): 34%; Ratio IC50 [7]: 37; Ratio IC50 [10]: 2; Cmax [11]: 3000 nM; Ratio IC50 [8]: 40; half-life [12]: 1.8 h
O=C(NO)[C@H]1CC2(CC2)CN[C@@H]1C(=O)N1CC=C(c2ccccc2)C1 |  |  |  | 13 |  |  | 
Cc1cc(C)cc(C2=CCN(C(=O)[C@H]3NCC4(CC4)C[C@@H]3C(=O)NO)CC2)c1 | 433 | 85 | > 5000 | 86 | > 5000 | > 5000 | 
